Like-named read-outs stand apart in the source and are kept apart here.
Assays:
[1] = tested on: olfactory epithelium (nasal tissues); assay: One-week comparative intranasal irritation study in rats (Compound I vs Compound III): nasal histology and tolerability; assay type: in vivo; conditions: 1 week
Experimental: This study was conducted to compare potential nasal irritation of Compound I to Compound III when given intranasally to male rats for 1 week. Male rats (10/group) were instilled intranasally with Compound I or Compound III solutions ([…] in 225 mM succinic acid, 0.02% benzalkonium chloride, 1.25% anhydrous dextrose, pH 5.8-6.2) once daily at a dose volume of 100 μL/nostril. Using this dosing paradigm, fixed doses of 5, 15 or 35 mg of test article were delivered daily. As a consequence, dosages normalized to body weight decreased with time as the rats grew. One control group was given succinate vehicle and a sham control group was given saline by intranasal instillation. Parameters evaluated included clinical observations, body weight, food consumption, toxicokinetics, and histological evaluation of nasal tissues.

[2] = tested on: olfactory epithelium (nasal turbinates); assay type: in vivo, rats
Text: Compound I and Compound II were also compared directly for intranasal irritation. […] The only endpoint evaluated in this study was histological evaluation of the nasal turbinates.

[3] = nasal instillation 5 mg (0.357 mg/cm^2) once daily
[4] = nasal instillation 15 mg (1.07 mg/cm^2) once daily
[5] = nasal instillation 35 mg (2.50 mg/cm^2) once daily
[6] = 12.5 μL/nostril, 75 mg/ml, 1.875 mg/rat/day (0.134 mg/cm^2)
[7] = 12.5 μL/nostril, 175 mg/ml, 4.375 mg/rat/day (0.313 mg/cm^2)
[8] = 25 μL/nostril, 75 mg/ml, 3.75 mg/rat/day (0.268 mg/cm^2)
[9] = 25 μL/nostril, 175 mg/ml, 8.75 mg/rat/day (0.625 mg/cm^2)
[10] = 100 μL/nostril, 75 mg/ml, 15 mg/rat/day (1.071 mg/cm^2)
[11] = 100 μL/nostril, 175 mg/ml, 35 mg/rat/day (2.500 mg/cm^2)

SMILES: Cc1cc(C[C@@H](NC(=O)N2CCC(c3cc4ccccc4[nH]c3=O)CC2)C(=O)N2CCC(N3CCCCC3)CC2)cc2cn[nH]c12 [Compound III, reference compound]
- Olfactory Epithelial Atrophy, incidence of severity Marked (number of rats) [1, 3]: 0
- Olfactory Epithelial Atrophy, incidence of severity Mild (number of rats) [1, 3]: 2
- Olfactory Epithelial Atrophy, incidence of severity Minimal (number of rats) [1, 3]: 6
- Olfactory Epithelial Atrophy, incidence of severity Moderate (number of rats) [1, 3]: 0
- Olfactory Epithelial Atrophy, incidence of severity None (number of rats) [1, 3]: 1
- Olfactory Epithelial Atrophy, incidence of severity Marked (number of rats) [1, 4]: 0
- Olfactory Epithelial Atrophy, incidence of severity Mild (number of rats) [1, 4]: 2
- Olfactory Epithelial Atrophy, incidence of severity Minimal (number of rats) [1, 4]: 0
- Olfactory Epithelial Atrophy, incidence of severity Moderate (number of rats) [1, 4]: 6
- Olfactory Epithelial Atrophy, incidence of severity None (number of rats) [1, 4]: 1
- Olfactory Epithelial Atrophy, incidence of severity Marked (number of rats) [1, 5]: 1
- Olfactory Epithelial Atrophy, incidence of severity Mild (number of rats) [1, 5]: 2
- Olfactory Epithelial Atrophy, incidence of severity Minimal (number of rats) [1, 5]: 0
- Olfactory Epithelial Atrophy, incidence of severity Moderate (number of rats) [1, 5]: 3
- Olfactory Epithelial Atrophy, incidence of severity None (number of rats) [1, 5]: 3

SMILES: Cc1cc(C[C@@H](NC(=O)N2CCC(C3Cc4cccc(F)c4NC3=O)CC2)C(=O)N2CCC(N3CCCCC3)CC2)cc2cn[nH]c12 (stereo partly shown) [Compound II]
- Olfactory epithelial toxicity, number of animals with severity Mild [2, 6]: 1
- Olfactory epithelial toxicity, number of animals with severity None [2, 6]: 3
- Olfactory epithelial toxicity, number of animals with severity Slight [2, 6]: 1
- Olfactory epithelial toxicity, number of animals with severity Mild [2, 7]: 1
- Olfactory epithelial toxicity, number of animals with severity Minimal [2, 7]: 1
- Olfactory epithelial toxicity, number of animals with severity None [2, 7]: 3
- Olfactory epithelial toxicity, number of animals with severity Minimal [2, 8]: 2
- Olfactory epithelial toxicity, number of animals with severity None [2, 8]: 2
- Olfactory epithelial toxicity, number of animals with severity Slight [2, 8]: 1
- Olfactory epithelial toxicity, number of animals with severity Minimal [2, 9]: 3
- Olfactory epithelial toxicity, number of animals with severity None [2, 9]: 1
- Olfactory epithelial toxicity, number of animals with severity Slight [2, 9]: 1
- Olfactory epithelial toxicity, number of animals with severity Mild [2, 10]: 1
- Olfactory epithelial toxicity, number of animals with severity Slight [2, 10]: 4
- Olfactory epithelial toxicity, number of animals with severity Mild [2, 11]: 2
- Olfactory epithelial toxicity, number of animals with severity Moderate [2, 11]: 3
